Patent publication US6737383B1, “Herbicidal oxadiazolidines” (priority 1999, dated 2004)

How the values were obtained:
rape = assay: Test B pre/postemergence rape; format: in vivo, Brassica napus
Procedure, shortened: (§1)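 Test chemicals in a non-phytotoxic solvent mixture with surfactant were sprayed preemergence onto planted seeds and postemergence onto plants 2 to 18 cm tall (1- to 4-leaf stage). After twelve to sixteen days in a greenhouse, injury was visually rated against untreated controls from 0 (no effect) to 10 (complete control).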

giant foxtail = assay: Test B pre/postemergence giant foxtail; format: in vivo, Setaria faberii
Procedure, shortened: as §1

blackgrass = assay: Test B pre/postemergence blackgrass; format: in vivo, Alopecurus myosuroides
Procedure, shortened: as §1

crabgrass = assay: Test B pre/postemergence crabgrass; format: in vivo, Digitaria sanguinalis
Procedure, shortened: as §1

wild oat = assay: Test B pre/postemergence wild oat; format: in vivo, Avena fatua
Procedure, shortened: as §1

bedstraw = assay: Test B pre/postemergence bedstraw; format: in vivo, Galium aparine
Procedure, shortened: as §1

cocklebur = assay: Test B pre/postemergence cocklebur; format: in vivo, Xanthium strumarium
Procedure, shortened: as §1

morningglory = assay: Test B pre/postemergence morningglory; format: in vivo, Ipomoea hederacea
Procedure, shortened: as §1

corn = assay: Test B pre/postemergence corn; format: in vivo, Zea mays
Procedure, shortened: as §1

pigweed = assay: Test B pre/postemergence pigweed; format: in vivo, Amaranthus retroflexus
Procedure, shortened: as §1

velvetleaf = assay: Test B pre/postemergence velvetleaf; format: in vivo, Abutilon theophrasti
Procedure, shortened: as §1

soybean = assay: Test B pre/postemergence soybean; format: in vivo, Glycine max
Procedure, shortened: as §1

surinam grass = assay: Test B pre/postemergence surinam grass; format: in vivo, Brachiaria decumbens
Procedure, shortened: as §1

purple nutsedge = assay: Test B pre/postemergence purple nutsedge; format: in vivo, Cyperus rotundus
Procedure, shortened: as §1

sugar beet = assay: Test B pre/postemergence sugar beet; format: in vivo, Beta vulgaris
Procedure, shortened: as §1

wheat = assay: Test B pre/postemergence wheat; format: in vivo, Triticum aestivum
Procedure, shortened: as §1

[1] = Postemergence, Rate 62 g/ha, scale of 0 to 10, 0 is no effect, 10 is complete control
[2] = Postemergence, Rate 125 g/ha, scale 0 to 10, 0 is no effect, 10 is complete control
[3] = Preemergence, Rate 62 g/ha, scale 0 to 10 (0 no effect, 10 complete control)
[4] = Preemergence, Rate 125 g/ha, scale 0 to 10, 0 is no effect, 10 is complete control
[5] = Rate 250 g/ha, Postemergence, scale of 0 to 10 where 0 is no effect and 10 is complete control
[6] = Postemergence, Rate 500 g/ha, scale 0 to 10, 0 is no effect, 10 is complete control
[7] = Preemergence, Rate 500 g/ha, scale of 0 to 10 where 0 is no effect and 10 is complete control

Structure (SMILES): CCC(=O)Cn1c(=O)on(C(=O)N(c2ccc(Cl)cc2)C(C)C)c1=O [Compound 553]
- Rape plant response rating (rape; [1]): 2
- Rape plant response rating (rape; [2]): 6
- Rape plant response rating (rape; [3]): 0
- Rape plant response rating (rape; [4]): 3
- Rape plant response rating (0 to 10 scale) (rape; Preemergence, Rate 250 g/ha): 3
- Plant response rating, Rape (rape; [5]): 7
- Giant foxtail plant response rating (giant foxtail; [1]): 0
- Giant foxtail plant response rating (giant foxtail; [2]): 7
- Plant response rating, Giant foxtail (giant foxtail; [6]): 7
- Giant foxtail plant response rating (giant foxtail; [3]): 10
- Giant foxtail plant response rating (giant foxtail; [4]): 10
- Giant foxtail plant response rating (0 to 10 scale) (giant foxtail; Preemergence, Rate 250 g/ha): 10
- Giant foxtail plant response rating (giant foxtail; [7]): 10
- Plant response rating, Giant foxtail (giant foxtail; [5]): 6
- Blackgrass plant response rating (blackgrass; [1]): 0
- Blackgrass plant response rating (blackgrass; [2]): 0
- Plant response rating, Blackgrass (blackgrass; [6]): 7
- Blackgrass plant response rating (blackgrass; [3]): 7
- Blackgrass plant response rating (blackgrass; [4]): 7
- Blackgrass plant response rating (0 to 10 scale) (blackgrass; Preemergence, Rate 250 g/ha): 7
- Plant response rating, Blackgrass (blackgrass; [5]): 3
- Crabgrass plant response rating (crabgrass; [1]): 0
- Crabgrass plant response rating (crabgrass; [2]): 3
- Plant response rating, Crabgrass (crabgrass; [6]): 9
- Crabgrass plant response rating (crabgrass; [3]): 10
- Crabgrass plant response rating (crabgrass; [4]): 9
- Crabgrass plant response rating (0 to 10 scale) (crabgrass; Preemergence, Rate 250 g/ha): 10
- Crabgrass plant response rating (crabgrass; [7]): 10
- Plant response rating, Crabgrass (crabgrass; [5]): 8
- Wild oats plant response rating (wild oat; [1]): 0
- Plant response rating, Wild oats (wild oat; [6]): 2
- Wild oats plant response rating (wild oat; [3]): 0
- Wild oats plant response rating (wild oat; [4]): 0
- Wild oats plant response rating (0 to 10 scale) (wild oat; Preemergence, Rate 250 g/ha): 3
- Plant response rating, Wild oats (wild oat; [5]): 2
- Bedstraw plant response rating (bedstraw; [1]): 0
- Bedstraw plant response rating (bedstraw; [2]): 2
- Plant response rating, Bedstraw (bedstraw; [6]): 7
- Bedstraw plant response rating (bedstraw; [3]): 0
- Bedstraw plant response rating (bedstraw; [4]): 0
- Bedstraw plant response rating (0 to 10 scale) (bedstraw; Preemergence, Rate 250 g/ha): 2
- Bedstraw plant response rating (bedstraw; [7]): 10
- Plant response rating, Bedstraw (bedstraw; [5]): 2
- Cocklebur plant response rating (cocklebur; [1]): 0
- Plant response rating, Cocklebur (cocklebur; [6]): 2
- Cocklebur plant response rating (cocklebur; [4]): 0
- Cocklebur plant response rating (0 to 10 scale) (cocklebur; Preemergence, Rate 250 g/ha): 0
- Cocklebur plant response rating (cocklebur; [7]): 10
- Plant response rating, Cocklebur (cocklebur; [5]): 0
- Morningglory plant response rating (morningglory; [1]): 0
- Morningglory plant response rating (morningglory; [2]): 0
- Plant response rating, Morningglory (morningglory; [6]): 0
- Morningglory plant response rating (morningglory; [3]): 0
- Morningglory plant response rating (morningglory; [4]): 0
- Morningglory plant response rating (0 to 10 scale) (morningglory; Preemergence, Rate 250 g/ha): 0
- Morningglory plant response rating (morningglory; [7]): 2
- Plant response rating, Morningglory (morningglory; [5]): 0
- Corn plant response rating (corn; [1]): 0
- Corn plant response rating (corn; [2]): 0
- Plant response rating, Corn (corn; [6]): 0
- Corn plant response rating (corn; [3]): 0
- Corn plant response rating (corn; [4]): 0
- Corn plant response rating (0 to 10 scale) (corn; Preemergence, Rate 250 g/ha): 0
- Corn plant response rating (corn; [7]): 3
- Plant response rating, Corn (corn; [5]): 0
- Redroot pigweed plant response rating (pigweed; [1]): 0
- Plant response rating, Redroot pigweed (pigweed; [6]): 0
- Redroot pigweed plant response rating (pigweed; [3]): 0
- Redroot pigweed plant response rating (pigweed; [4]): 7
- Redroot pigweed plant response rating (0 to 10 scale) (pigweed; Preemergence, Rate 250 g/ha): 9
- Plant response rating, Redroot pigweed (pigweed; [5]): 0
- Velvetleaf plant response rating (velvetleaf; [3]): 0
- Velvetleaf plant response rating (velvetleaf; [4]): 0
- Velvetleaf plant response rating (0 to 10 scale) (velvetleaf; Preemergence, Rate 250 g/ha): 0
- Velvetleaf plant response rating (velvetleaf; [7]): 2
- Plant response rating, Velvetleaf (velvetleaf; [5]): 5
- Soybean plant response rating (soybean; [1]): 1
- Soybean plant response rating (soybean; [3]): 0
- Soybean plant response rating (soybean; [4]): 0
- Soybean plant response rating (0 to 10 scale) (soybean; Preemergence, Rate 250 g/ha): 0
- Soybean plant response rating (soybean; [7]): 3
- Plant response rating, Soybean (soybean; [5]): 3
- B. signalgrass plant response rating (surinam grass; [1]): 0
- B. signalgrass plant response rating (surinam grass; [2]): 0
- Plant response rating, B. signalgrass (surinam grass; [6]): 5
- B. signalgrass plant response rating (surinam grass; [3]): 6
- B. signalgrass plant response rating (surinam grass; [4]): 9
- B. signalgrass plant response rating (0 to 10 scale, 0 is no effect, 10 is complete control) (surinam grass; Preemergence, Rate 250 g/ha): 9
- B. signalgrass plant response rating (surinam grass; [7]): 8
- Plant response rating, B. signalgrass (surinam grass; [5]): 3
- Nutsedge plant response rating (purple nutsedge; [1]): 0
- Nutsedge plant response rating (purple nutsedge; [2]): 0
- Nutsedge plant response rating (purple nutsedge; [3]): 0
- Nutsedge plant response rating (purple nutsedge; [4]): 0
- Nutsedge plant response rating (0 to 10 scale) (purple nutsedge; Preemergence, Rate 250 g/ha): 0
- Nutsedge plant response rating (purple nutsedge; [7]): 0
- Plant response rating, Nutsedge (purple nutsedge; [5]): 0
- Sugarbeets plant response rating (sugar beet; [1]): 0
- Plant response rating, Sugarbeets (sugar beet; [6]): 2
- Sugarbeets plant response rating (sugar beet; [3]): 0
- Sugarbeets plant response rating (sugar beet; [4]): 3
- Sugarbeets plant response rating (0 to 10 scale) (sugar beet; Preemergence, Rate 250 g/ha): 3
- Plant response rating, Sugarbeets (sugar beet; [5]): 0
- Wheat plant response rating (wheat; [1]): 0
- Plant response rating, Wheat (wheat; [6]): 3
- Wheat plant response rating (wheat; [4]): 0
- Wheat plant response rating (0 to 10 scale) (wheat; Preemergence, Rate 250 g/ha): 0
- Plant response rating, Wheat (wheat; [5]): 0
